The data set can be described thus: Human HepG2 cell viability assay in 384 well format. It counts as toxicity, cell-based. Further details: dose 125 nL, time 70.5 hour; cytotoxicity at 70.5 h: concentration not given beside the values. The conditions noted are these: HepG2 cells, read-out: Inhibition.

With `CSCc1noc(CN2CCCCC2CCc2ccc(O)cc2)n1` (stereo not drawn), the cytotoxicity at 70.5 h was -2.26%. The figure for `COc1cc(C)c(-c2ccc(F)c3c2OC(CN)C3)cc1C` (stereo not drawn) is -0.0935%. Turning to `CC(C)c1cc(C2CCN(C(=O)Cn3cnnn3)CC2)[nH]n1`, the cytotoxicity at 70.5 h was -6.46%. With `O=C(c1cccc(O)c1)N1C[C@@H](CN2CCCCC2)[C@@H](CO)C1`, the cytotoxicity at 70.5 h is -4.01%. The value for `OCC1(O)CCN(c2ncccc2C(F)(F)F)CC1` was -0.128%; that for `Cc1cnc(-c2cccc(-c3ccn(CCCO)n3)c2)nc1N(C)C` was -3.76%.

Turning to `CNC(=O)c1nc(CN2CCOC(Cc3ccc(F)cc3)C2)no1` (stereo not drawn), the cytotoxicity at 70.5 h is -15.2%.

Consider `CC(C)(CN1CCCC1)CN1CCC(Cn2cc(C3CC3)nn2)CC1`, for which the cytotoxicity at 70.5 h is -9.26%. The figure for `COC(C)(C)Cn1ccnc1-c1cccc(C(C)N(C)C)c1` (stereo not drawn) is -7.08%. Consider `CS(=O)(=O)N1CCc2[nH]nc(Cc3cccs3)c2C1`, for which the cytotoxicity at 70.5 h was -2.7%. Regarding `CCOc1ccccc1CN(CC)Cc1ccc(S(=O)(=O)NC)cc1`, the cytotoxicity at 70.5 h was -5.11%. The figure for `Cc1cc(C)nc(N2CC[C@@]3(O)CCN(S(=O)(=O)N(C)C)C[C@H]3C2)n1` is 16.5%. Take `COC[C@H](C)Nc1cc(C)c2ccc(SC)cc2n1`: the cytotoxicity at 70.5 h was -8%. The figure for `COc1cc(OC)c2nc(NCCN3CCNC3=O)cc(C)c2c1` is 2.59%; for `COC(=O)N1CCC(c2nnc(Cn3ccnc3)n2C)CC1` it is -2.68%; for `c1ccc(-c2n[nH]c(CCNc3nnc(C4CCC4)o3)n2)cc1` it is -7.22%.

As to `CCN(Cc1ccncc1)C(=O)c1cn(CCC2CCCCC2)nn1`, the cytotoxicity at 70.5 h is -16%. For `CC(C)Cc1nc(CN2CC(=O)N(C)c3ccccc3C2=O)no1`, the cytotoxicity at 70.5 h was determined as 2.18%. In the case of `CN(C)C(=O)CN1C[C@@H]2CC[C@H](C1)N(Cc1ccc3nsnc3c1)C2`, the cytotoxicity at 70.5 h was 3.82%.

In the case of `COc1ccccc1CC(=O)N1C[C@H]2CC[C@@H]1CN(Cc1cscn1)C2`, the cytotoxicity at 70.5 h is -12.1%. The figure for `O=C1CC2(CCN(Cc3ccc4cccc(O)c4n3)CC2)CN1` is -5.81%. The value for `CC(=O)c1ccc(C(=O)N2C[C@@H]3CC[C@H](C2)N(Cc2ccccc2)C3)s1` was 4.96%; that for `c1nc(CCNc2nc(C3CC3)nc3c2CCNCC3)c[nH]1` was -10.1%.

As to `CC(C)[C@@H]1CN(C(=O)CCc2ccc(F)cc2)C[C@H]1C(=O)O`, the cytotoxicity at 70.5 h worked out at 28.6%. The figure for `CCN(C)CC(=O)N1CCc2nc(NC)nc(C(=O)N3CCCC3)c2C1` is 2.56%; for `CC(C)CN1CC(c2nc(CCc3ccccc3)n[nH]2)CC1=O` (stereo not drawn) it is -9.23%. Turning to `FC(F)(F)c1ccc(-c2noc3c2CN(CC2CCCO2)CC3)cc1` (stereo not drawn), the cytotoxicity at 70.5 h was -10.2%.

Regarding `COc1nc2ccccc2cc1CN1CCCC(CNC(C)=O)C1` (stereo not drawn), the cytotoxicity at 70.5 h is -4.14%.

For the compound `Cc1cc(=O)c(C(=O)N2CCCCC2c2ccc(F)cc2)c[nH]1` (stereo not drawn), the cytotoxicity at 70.5 h was -4.63%.

In the case of `Cc1noc(C)c1C1CCCN1C(=O)CN1C(=O)OC(C)(C)C1=O` (stereo not drawn), the cytotoxicity at 70.5 h was found to be 26.8%.

For `CC(=O)N(C/C=C/c1ccccc1)CCO`, the cytotoxicity at 70.5 h worked out at 7.41%.

With `NCC1CCN(c2nc(C3CCCC3)nc3c2CCNCC3)C1` (stereo not drawn), the cytotoxicity at 70.5 h is 21.5%. The value for `COC1CCCN(Cc2cc(O)c3cc(C)cc(C)c3n2)C1` (stereo not drawn) was -2.68%; that for `CN1CCCCC1CCC(=O)NCCSc1cnn[nH]1` (stereo not drawn) was -2.59%; that for `CC(C)N1CCC(C(=O)N[C@H](C(=O)O)c2cccc(F)c2F)CC1` was -1.13%.

With `Nc1nc(CC(=O)N2CCCC(CCc3cccc(F)c3)C2)cc(=O)[nH]1` (stereo not drawn), the cytotoxicity at 70.5 h was -12.2%. The value for `CC1(C)CNC(=O)c2nc(-c3ccccc3)[nH]c2C1` was 14.6%; that for `CCCc1nnc(NC2CCN(Cc3ccc(F)c(F)c3)CC2)o1` was -6.56%; that for `CN(C)C(=O)c1cc2c(s1)CCN(C(=O)CCCN1CCCCC1)C2` was -6.61%. On to `Cc1nc(-c2cc(Cl)c3c(c2)CC(CN)O3)c[nH]1` (stereo not drawn), for which the cytotoxicity at 70.5 h was 0.0695%. The value for `CC(=O)N1C[C@H](NS(=O)(=O)N2CCCC2)[C@@H](c2ccc(C)o2)C1` was -7.2%; that for `CNS(=O)(=O)c1ccc(CN2CCCN(c3ccccc3)CC2)cc1` was 18%; that for `COc1ccc(C(C(=O)O)N2CCN(C3CCCC3)CC2)cc1C` (stereo not drawn) was -1.67%. The value for `CNC(=O)c1cn2cc(-c3cccc(Cl)c3)n(CC=C(C)C)c(=O)c2n1` was -5.75%; that for `CCN(Cc1cnn(CC)c1)C(=O)CN1C(=O)CCc2ccccc21` was -4.74%; that for `CNc1cc(C)nc(-c2cc(NC)nc3[nH]ccc23)n1` was -8.84%. The value for `CSc1ccc(-c2nc(CN3CCC(NC(C)=O)CC3)c(C)o2)cc1` was -7.12%; that for `CC(C)[C@@H]1CN(c2ncc(F)cn2)C[C@H]1NC(=O)N(C)C` was -3.08%; that for `Cc1c(O)cccc1C(=O)N1CCCC2(C1)C(=O)N(C)c1ccccc12` (stereo not drawn) was 23%. As for `Cc1cc(C)n2nc(CC(=O)N[C@H]3C[C@H]4CN(C)CCN4C3)nc2n1`, the cytotoxicity at 70.5 h was -7.89%. Turning to `CC(=O)c1ccc(CN2C[C@@H](CN3CCC(O)CC3)[C@@H](CO)C2)cc1`, the cytotoxicity at 70.5 h was -2.46%. The value for `Cc1cc(N(C)Cc2ccsc2)n2nc(C)c(C)c2n1` was -10.9%; that for `Cc1cc(C)nc(CN(C)C(=O)C(c2cccnc2)N2CCCC2)c1` (stereo not drawn) was -9.19%; that for `CCCC1(C(=O)O)CCCN(C(=O)c2cc(Cl)ccc2F)C1` (stereo not drawn) was -13.1%. The value for `O=c1[nH]ccn1CCCN1CC=C(c2cnn(-c3ccccc3)c2)CC1` was -2.11%. The value for `CCn1nc(C(C)C)cc1C(=O)N1CC(OCc2ccccc2F)C1` was 0.716%; that for `CC(C)CS(=O)(=O)CCNc1ncccn1` was -4.65%; that for `O=C(NCCn1cccc1)C1CCC(=O)N(C2CCCC2)C1` (stereo not drawn) was -8.05%. For the compound `CCN1CCN(CCCNc2ncccn2)CC1`, the cytotoxicity at 70.5 h was found to be 9.52%. The figure for `c1cn(CCNc2nc(NC3CC3)nc3c2CCNCC3)nn1` is -14.7%. For the compound `OCc1cn([C@@H]2c3ccccc3C3(CCNCC3)[C@H]2O)nn1`, the cytotoxicity at 70.5 h was -9%. Regarding `Cn1ncc2c(N[C@@H]3CS(=O)(=O)C[C@H]3O)nc(C(C)(C)C)nc21`, the cytotoxicity at 70.5 h was -9.52%. The value for `Cc1nonc1OCCNC(=O)COc1ccc(Cl)cc1Cl` was -13.9%; that for `CNC(=O)[C@@H]1C[C@@H](NC(=O)CSc2ccccc2)CN1C1CCOCC1` was 14.1%; that for `COc1cc(-c2cc(-c3ccn(C)c3)nc(N)c2C#N)cc(OC)c1O` was -1.48%. The value for `CCc1ccc(CN2CCN(C(=O)C(C)C)[C@@H]3CS(=O)(=O)C[C@@H]32)cc1` was 14.5%; that for `CCn1nc(C)c(C(C)NC(=O)c2cccc(NCC(=O)O)c2)c1C` (stereo not drawn) was -9.45%; that for `Cc1n[nH]c(CCC(=O)N2CCOC(Cc3ccccc3)C2)c1C` (stereo not drawn) was -7.3%.

Take `CNc1ncc(CN(C)C(=O)c2cccc(-n3cccn3)c2)cn1`: the cytotoxicity at 70.5 h is -6.94%.

As to `O=C1CC(NS(=O)(=O)NCc2ccccc2)CN1c1ccccc1Cl` (stereo not drawn), the cytotoxicity at 70.5 h turned out to be 5.29%. The figure for `OC1(CN(Cc2cccnc2)C2CCCCC2)CNCCOC1` (stereo not drawn) is -2.72%; for `CCn1c(C)nnc1SCCNc1nc(C)nc2ncccc12` it is -15.7%; for `CN(C)CCNC(=O)c1cc2n(n1)CCN(C(=O)c1ccco1)C2` it is -5.47%.

With `CC(C)n1cnnc1CN(C)Cc1cnc(-c2ccco2)nc1`, the cytotoxicity at 70.5 h was -1.59%. The value for `COCCN(C)CCN1CC2(CCN(C3CCOCC3)CC2)OC1=O` was 20.5%; that for `Cc1ccc(-c2cc(C(=O)N3CCCC3c3cccnc3)[nH]n2)o1` (stereo not drawn) was -4.23%. The figure for `CC(=O)c1cnc(NCCN2CCCC(c3ccccc3)C2)nc1C` (stereo not drawn) is 14.2%. The value for `Cc1c[nH]c(CN(C)C(C(=O)O)c2c(F)cccc2Cl)n1` (stereo not drawn) was 1.26%; that for `O=C(c1ccnc(N2CCOC(c3ccc(Cl)cc3)C2)c1)N1CCCC1` (stereo not drawn) was -15.4%; that for `CCn1c(C)cc(C(=O)N2CCCC(C(=O)c3nccn3C)C2)c1C` (stereo not drawn) was 19.6%. Take `Cn1ccnc1C1CCN(C(=O)COCC(F)(F)C(F)F)CC1`: the cytotoxicity at 70.5 h is -14.1%.

With `CCCn1cnnc1CNC1CSCCSC1`, the cytotoxicity at 70.5 h is -9.24%. The value for `Nc1ccnc(N2CCC(c3nccn3CC3CC3)CC2)n1` was 17.6%; that for `CCn1cc(S(=O)(=O)N2CCC3(CCCN(CC4CCC4)C3=O)C2)cn1` (stereo not drawn) was -0.872%. Consider `CC(CO)CN(Cc1ccccc1)Cc1c[nH]cn1` (stereo not drawn), for which the cytotoxicity at 70.5 h was -15.2%. The figure for `COc1ccc(OCC2CCCN(Cc3ccncc3)C2)cc1` (stereo not drawn) is -12.6%; for `Cc1cc(C)n(CC(=O)N2CCCCC2CCN(C)C)c(=O)n1` (stereo not drawn) it is -7.91%. The figure for `Cc1cc(C2CCC2)nc(N(C)Cc2cnccn2)n1` is -6.23%; for `COCCc1ncc(CN2C[C@@H](C(=O)O)[C@H](C(C)C)C2)cn1` it is 14.1%; for `COCCN(CC1CC1)c1nc(CCN)nc2sc(C)c(C)c12` it is 26.7%. The value for `COc1cccc(-n2cc(CN(C)Cc3ccnc(C(C)C)n3)cn2)c1` was -6.06%; that for `COc1ccc(-c2nc3c([nH]2)CCCNC3=O)cc1OC` was 4.81%.

Take `CC(C)(CNC1CCCN(Cc2ccccn2)C1)CN1CCOCC1` (stereo not drawn): the cytotoxicity at 70.5 h is -12.6%. The figure for `NC(=O)c1cc(-c2cccc(C(=O)O)c2)cs1` is -15.4%. The figure for `Cc1n[nH]c(C)c1CNC(=O)CSCc1ccccc1Cl` is -0.888%. The value for `c1cc2c(cc1Cn1cc(C3CCOC3)nn1)CCCO2` (stereo not drawn) was -13.2%; that for `CC(C)c1ccnc(N[C@H]2COC[C@@H]2N2CCCC2)n1` was -15.2%.

Turning to `COc1cc(NC2CCS(=O)(=O)C2)ncn1` (stereo not drawn), the cytotoxicity at 70.5 h is -17.8%.
